Assay results as given in US20250270213A1, “PI3Ka INHIBITORS” (Synnovation Therapeutics, Inc., priority 2022, published 2025).

System: T47D (PIK3CA H1047R) cells
Assay: pS473 AKT assay with 2.5% FBS, T47D cells
Type: cell-based
Conditions: Homo sapiens, pSer473 AKT, DMEM with 2.5% FBS, 2 h treatment, read-out: T47D_IC50
Summary of the method: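 T47D (PIK3CA H1047R) cells were switched to DMEM with 2.5% FBS and exposed to compounds for 2 h. After paraformaldehyde fixation, pSer473 AKT was detected by in-cell ELISA (rabbit primary, HRP anti-rabbit secondary, chemiluminescence); IC50 values were fitted from the concentration series.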

SMILES	IC50
CC(=O)N1CCC(n2ncc3c4c(C(C)Nc5ccc(Cl)nc5-c5ncn(C)n5)cc(C)cc4c(=O)n(C)c32)CC1 (stereo not drawn) [Example 188, 3-(1-acetylpiperidin-4-yl)-9-(1-((6-chloro-2-(1-methyl-1H-1,2,4-triazol-3-yl)pyridin-3-yl)amino)ethyl)-4,7-dimethyl-3,4-dihydro-5H-pyrazolo[3,4-c]isoquinolin-5-one]	< 1000 nM
Cc1cc(C(C)Nc2ccc(Cl)nc2-c2ncn(C)n2)c2c(c1)c(=O)n(C)c1c2cnn1C1CCN(S(C)(=O)=O)CC1 (stereo not drawn) [Example 190, 9-(1-((6-chloro-2-(1-methyl-1H-1,2,4-triazol-3-yl)pyridin-3-yl)amino)ethyl)-4,7-dimethyl-3-(1-(methylsulfonyl)piperidin-4-yl)-3,4-dihydro-5H-pyrazolo[3,4-c]isoquinolin-5-one]	< 1000 nM
Cc1cc(C(C)Nc2ccc(Cl)nc2-c2ccc3c(c2)CN(C)C3=O)c2c(c1)c(=O)n(C)c1c2cnn1C1CCN(S(C)(=O)=O)CC1 (stereo not drawn) [Example 191, 9-(1-((6-chloro-2-(2-methyl-1-oxoisoindolin-5-yl)pyridin-3-yl)amino)ethyl)-4,7-dimethyl-3-(1-(methylsulfonyl)piperidin-4-yl)-3,4-dihydro-5H-pyrazolo[3,4-c]isoquinolin-5-one]	< 1000 nM
Cc1cc(C(C)Nc2ccc(Cl)nc2-c2ccc3ncccc3c2)c2c(c1)c(=O)n(C)c1c2cnn1C1CCN(S(C)(=O)=O)CC1 (stereo not drawn) [Example 192, 9-(1-((6-chloro-2-(quinolin-6-yl)pyridin-3-yl)amino)ethyl)-4,7-dimethyl-3-(1-(methylsulfonyl)piperidin-4-yl)-3,4-dihydro-5H-pyrazolo[3,4-c]isoquinolin-5-one]	< 1000 nM
Cc1cc(C(C)Nc2ccc(Cl)nc2-c2cnn(C)c2)c2c(c1)c(=O)n(C)c1c2cnn1C1CCN(C(=O)CO)CC1 (stereo not drawn) [Example 193, 9-[1-[[6-Chloro-2-(1-methylpyrazol-4-yl)-3-pyridyl]amino]ethyl]-3-[1-(2-hydroxyacetyl)-4-piperidyl]-4,7-dimethyl-pyrazolo[3,4-c]isoquinolin-5-one]	< 1000 nM
Cc1cc(C(C)Nc2ccc(Cl)nc2-c2ncn(C)n2)c2c(c1)c(=O)n(C)c1c2cnn1C1CCN(C(=O)C2(C#N)CC2)CC1 (stereo not drawn) [Example 194, 1-(4-(9-(1-((6-chloro-2-(1-methyl-1H-1,2,4-triazol-3-yl)pyridin-3-yl)amino)ethyl)-4,7-dimethyl-5-oxo-4,5-dihydro-3H-pyrazolo[3,4-c]isoquinolin-3-yl)piperidine-1-carbonyl)cyclopropane-1-carbonitrile]	< 1000 nM
Cc1cc(C(C)Nc2ccc(Cl)nc2-c2ncn(C)n2)c2c(c1)c(=O)n(C)c1c2cnn1C1CCN(C(=O)c2ccnn2C)CC1 (stereo not drawn) [Example 195, 9-(1-((6-chloro-2-(1-methyl-1H-1,2,4-triazol-3-yl)pyridin-3-yl)amino)ethyl)-4,7-dimethyl-3-(1-(1-methyl-1H-pyrazole-5-carbonyl)piperidin-4-yl)-3,4-dihydro-5H-pyrazolo[3,4-c]isoquinolin-5-one]	< 1000 nM
Cc1cc(C(C)Nc2ccc(Cl)nc2-c2cnn(C)c2)c2c(c1)c(=O)n(C)c1c2cnn1C1CCN(C(=O)CN(C)C)CC1 (stereo not drawn) [Example 196, 9-(1-((6-chloro-2-(1-methyl-1H-pyrazol-4-yl)pyridin-3-yl)amino)ethyl)-3-(1-(dimethylglycyl)piperidin-4-yl)-4,7-dimethyl-3,4-dihydro-5H-pyrazolo[3,4-c]isoquinolin-5-one]	< 1000 nM
CCn1c(=O)c2cc(C)cc(C(C)Nc3ccc(Cl)nc3-c3ncn(C)n3)c2c2cn(C3CCOCC3)nc21 (stereo not drawn) [Example 199, 9-(1-((6-Chloro-2-(1-methyl-1H-1,2,4-triazol-3-yl)pyridin-3-yl)amino)ethyl)-4-ethyl-7-methyl-2-(tetrahydro-2H-pyran-4-yl)-2,4-dihydro-5H-pyrazolo[3,4-c]isoquinolin-5-one]	< 1000 nM
CCn1c(=O)c2cc(C)cc(C(C)Nc3ccc(Cl)nc3-c3ncn(C)n3)c2c2cn(C3CCN(C)CC3)nc21 (stereo not drawn) [Example 201, 9-(1-((6-Chloro-2-(1-methyl-1H-1,2,4-triazol-3-yl)pyridin-3-yl)amino)ethyl)-4-ethyl-7-methyl-2-(1-methylpiperidin-4-yl)-2,4-dihydro-5H-pyrazolo[3,4-c]isoquinolin-5-one]	< 1000 nM
CCn1c(=O)c2cc(C)cc(C(C)Nc3ccc(Cl)nc3-c3ncn(C)n3)c2c2cn(C3CCN(C(C)=O)CC3)nc21 (stereo not drawn) [Example 202, 2-(1-Acetylpiperidin-4-yl)-9-(1-((6-chloro-2-(1-methyl-1H-1,2,4-triazol-3-yl)pyridin-3-yl)amino)ethyl)-4-ethyl-7-methyl-2,4-dihydro-5H-pyrazolo[3,4-c]isoquinolin-5-one]	< 1000 nM
CCn1c(=O)c2cc(C)cc(C(C)Nc3ccc(Cl)nc3-c3ncn(C)n3)c2c2cn(C3CCN(CCO)CC3)nc21 (stereo not drawn) [Example 203, 9-(1-((6-Chloro-2-(1-methyl-1H-1,2,4-triazol-3-yl)pyridin-3-yl)amino)ethyl)-4-ethyl-2-(1-(2-hydroxyethyl)piperidin-4-yl)-7-methyl-2,4-dihydro-5H-pyrazolo[3,4-c]isoquinolin-5-one]	< 1000 nM
CCn1c(=O)c2cc(C)cc(C(C)Nc3ccc(Cl)nc3-c3ncn(C)n3)c2c2cn(C3CN(C)C3)nc21 (stereo not drawn) [Example 205, 9-(1-((6-Chloro-2-(1-methyl-1H-1,2,4-triazol-3-yl)pyridin-3-yl)amino)ethyl)-4-ethyl-7-methyl-2-(1-methylazetidin-3-yl)-2,4-dihydro-5H-pyrazolo[3,4-c]isoquinolin-5-one]	< 1000 nM
Cc1cc(C(C)Nc2ccc(Cl)nc2-c2cnn(C)c2)c2c(c1)c(=O)n(C)c1nn(C3CCN(C)CC3)cc21 (stereo not drawn) [Example 206, 9-(1-((6-Chloro-2-(1-methyl-1H-pyrazol-4-yl)pyridin-3-yl)amino)ethyl)-4,7-dimethyl-2-(1-methylpiperidin-4-yl)-2,4-dihydro-5H-pyrazolo[3,4-c]isoquinolin-5-one]	< 1000 nM
Cc1cc(C(C)Nc2ccc(Cl)nc2-c2ncn(C)n2)c2c(c1)c(=O)n(C)c1nn(C3CCN(C)CC3)cc21 (stereo not drawn) [Example 208, 9-(1-((6-chloro-2-(1-methyl-1H-1,2,4-triazol-3-yl)pyridin-3-yl)amino)ethyl)-4,7-dimethyl-2-(1-methylpiperidin-4-yl)-2,4-dihydro-5H-pyrazolo[3,4-c]isoquinolin-5-one]	< 1000 nM
CC(=O)N1CCC(n2cc3c4c(C(C)Nc5ccc(Cl)nc5-c5cnn(C)c5)cc(C)cc4c(=O)n(C)c3n2)CC1 (stereo not drawn) [Example 209, 2-(1-Acetylpiperidin-4-yl)-9-(1-((6-chloro-2-(1-methyl-1H-pyrazol-4-yl)pyridin-3-yl)amino)ethyl)-4,7-dimethyl-2,4-dihydro-5H-pyrazolo[3,4-c]isoquinolin-5-one]	< 1000 nM

Next, values leading:

IC50	SMILES
< 1000 nM	CC(=O)N1CCC(n2ncc3c4c(C(C)Nc5ccc(Cl)nc5-c5ccc(=O)n(C)c5)cc(C)cc4c(=O)n(C)c32)CC1 (stereo not drawn) [Example 187, 3-(1-acetylpiperidin-4-yl)-9-(1-((6-chloro-1′-methyl-6′-oxo-1′,6′-dihydro-[2,3′-bipyridin]-3-yl)amino)ethyl)-4,7-dimethyl-3,4-dihydro-5H-pyrazolo[3,4-c]isoquinolin-5-one]
< 1000 nM	Cc1cc(C(C)Nc2ccc(C)nc2-c2cnn(C)c2)c2c(c1)c(=O)n(C)c1c2cnn1C1CCN(S(C)(=O)=O)CC1 (stereo not drawn) [Example 189, 4,7-dimethyl-9-(1-((6-methyl-2-(1-methyl-1H-pyrazol-4-yl)pyridin-3-yl)amino)ethyl)-3-(1-(methylsulfonyl)piperidin-4-yl)-3,4-dihydro-5H-pyrazolo[3,4-c]isoquinolin-5-one]
< 1000 nM	Cc1cc(C(C)Nc2ccc(Cl)nc2-c2ncn(C)n2)c2c(c1)c(=O)n(C)c1c2cnn1C1CCN(C(=O)[C@@H]2CCCN2C)CC1 (stereo partly drawn) [Example 197, 9-(1-((6-chloro-2-(1-methyl-1H-1,2,4-triazol-3-yl)pyridin-3-yl)amino)ethyl)-4,7-dimethyl-3-(1-(methyl-L-prolyl)piperidin-4-yl)-3,4-dihydro-5H-pyrazolo[3,4-c]isoquinolin-5-one]
< 1000 nM	CC(Nc1ccc(Cl)nc1-c1cnn(C)c1)c1cc(C#N)cc2c(=O)n(C)c3c(cnn3C3CCN(C)CC3)c12 (stereo not drawn) [Example 198, 9-(1-((6-Chloro-2-(1-methyl-1H-pyrazol-4-yl)pyridin-3-yl)amino)ethyl)-4-methyl-3-(1-methylpiperidin-4-yl)-5-oxo-4,5-dihydro-3H-pyrazolo[3,4-c]isoquinoline-7-carbonitrile]
< 1000 nM	Cc1cc(C(C)Nc2ccc(Cl)nc2-c2noc(=O)[nH]2)c2c(c1)c(=O)n(C)c1nn(C3CCOCC3)cc21 (stereo not drawn) [Example 200, 3-(6-chloro-3-((1-(4,7-dimethyl-5-oxo-2-(tetrahydro-2H-pyran-4-yl)-4,5-dihydro-2H-pyrazolo[3,4-c]isoquinolin-9-yl)ethyl)amino)pyridin-2-yl)-1,2,4-oxadiazol-5(4H)-one]
< 1000 nM	CCn1c(=O)c2cc(C)cc(C(C)Nc3ccc(Cl)nc3-c3ncn(C)n3)c2c2cn(C3CCN(CCC#N)CC3)nc21 (stereo not drawn) [Example 204, 3-(4-(9-(1-((6-Chloro-2-(1-methyl-1H-1,2,4-triazol-3-yl)pyridin-3-yl)amino)ethyl)-4-ethyl-7-methyl-5-oxo-4,5-dihydro-2H-pyrazolo[3,4-c]isoquinolin-2-yl)piperidin-1-yl)propanenitrile]
< 1000 nM	Cc1cc(C(C)Nc2ccc(Cl)nc2-c2cnn(C)c2)c2c(c1)c(=O)n(C)c1nn(C3CCN(C(C)C)CC3)cc21 (stereo not drawn) [Example 207, 9-(1-((6-chloro-2-(1-methyl-1H-pyrazol-4-yl)pyridin-3-yl)amino)ethyl)-2-(1-isopropylpiperidin-4-yl)-4,7-dimethyl-2,4-dihydro-5H-pyrazolo[3,4-c]isoquinolin-5-one]
< 1000 nM	CCOC(=O)N1CCC(n2cc3c4c(C(C)Nc5ccc(Cl)nc5-c5cnn(C)c5)cc(C)cc4c(=O)n(C)c3n2)CC1 (stereo not drawn) [Example 210, ethyl 4-(9-(1-((6-chloro-2-(1-methyl-1H-pyrazol-4-yl)pyridin-3-yl)amino)ethyl)-4,7-dimethyl-5-oxo-4,5-dihydro-2H-pyrazolo[3,4-c]isoquinolin-2-yl)piperidine-1-carboxylate]
